The record followed here is PMC8406801, “Naringenin Inhibits Platelet Activation and Arterial Thrombosis Through Inhibition of Phosphoinositide 3-Kinase and Cyclic Nucleotide Signaling” (Frontiers in Pharmacology, 2021).

As usually defined, the IC50 is the midpoint of a concentration-inhibition curve. The low end stands for higher potency, the high end for lower potency.

Molecules are shown by their SMILES. Where “and” joins values, the source holds several entries; their conditions need not be identical. Equal entries are not always repeated. Where two headings read alike, the source gives them in different places.

Experiment [1] has as its system washed rat platelets. As to the kind of experiment: Collagen (2 μg/ml)-induced aggregation of washed platelets. Format: cell-based. To be noted: for Aggregation (%) / Aggregation % of control: washed platelets, single replicates; for Aggregation (%): raw data. The procedure: Washed rat platelets were prepared as described previously ([Gao et al., 2011]) with a minor modification. Briefly, rat blood was drawn from the abdominal aorta into the siliconized vacutainers containing 1:9 (v/v) 3.8% sodium citrate, supplemented with 100 ng/ml prostaglandin E1 (PGE1) and centrifuged at 300 × g for 6 min at room temperature. Platelet-rich plasma (PRP) was obtained, and after the addition of 100 ng/ml PGE1, platelets were pelleted at 900 × g for 10 min. Platelets were washed once in Tyrode’s buffer (12 mM NaHCO3, 138 mM NaCl, 5.5 mM glucose, 2.9 mM KCl, 2 mM MgCl2, 0.42 mM NaH2PO4, 10 mM HEPES, pH 7.4) containing 100 ng/ml PGE1, and finally resuspended in Tyrode’s buffer containing 0.02 U/mL apyrase to a final concentration of 4×10^8 cells/mL. Washed platelets were preincubated with vehicle (0.4% dimethyl sulfoxide) or various concentrations of naringenin in the presence of 2 mM CaCl2 for 5 min at 37°C, and then further stimulated by ADP (10 μM), thrombin (0.2 U/mL) or collagen (2 μg/ml). The maximum platelet aggregation rate was detected within 5 min with continuous stirring.
FIGURE 1 Effects of naringenin and naringin on platelet aggregation. Chemical structure of naringin (A) and naringenin (B). The effects of naringin (C) or naringenin (D) on PRP were measured following stimulation with 10 μmol/L ADP. Rat washed platelet aggregation performed with or without different concentrations of naringin (E) or naringenin (F) was recorded after stimulation with 10 μmol/L ADP. Similarly, Washed platelet aggregation performed with vehicle or various concentrations of naringenin was recorded after stimulation with 0.2 U/mL thrombin (G) or 2 μg/ml collagen (H). WP represents washed platelets. Data are expressed as means ± SD (n = 6), the level of aggregation obtained at 5 min with vehicle-treated samples (0 μM) was taken as 100%. *p < 0.05, **p < 0.01, ***p < 0.001 compared with the vehicle control group.

For experiment [2], the system named is VASP Ser239 phosphorylation. Put plainly: Immunoblotting of phospho-VASP (Ser239) in ADP-stimulated washed platelets, with or without PKA, PKG, PKC inhibitors. Format: cell-based, rat. The note with it: for p-VASP(Ser239) / GAPDH (Fold to ADP only) / p-VASP(Ser239) / GAPDH (raw data): ADP-stimulated, Figure 7C. The procedure: For in vitro platelet aggregation, aliquots of washed platelets were preincubated with vehicle or various concentrations of naringenin for 5 min and stimulated with ADP (10 μmol/L) under stirring at 37°C for 5 min. For ex vivo platelet aggregation, PRP was incubated at 37°C for 5 min and stimulated with ADP (5 μmol/L) under stirring at 37 °C. The platelet aggregation was terminated by adding ethylenediaminetetraacetic acid (EDTA; 10 mM). Total protein was prepared using RIPA lysis buffer and protein content was determined by bicinchoninic acid (BCA) protein assay kit. Equal amounts of platelet proteins (30 μg) were separated on 10% SDS polyacrylamide gel electrophoresis (SDS-PAGE) and then transferred to poly vinylidene difluoride (PVDF) membranes and subjected to western blot. Blots were blocked with TBS-Tween 20 containing 5% BSA and probed with primary antibodies diluted in blocking solution at 4°C overnight followed by incubation with the corresponding HRP secondary antibodies. The protein bands were visualized using enhanced chemiluminescence (ECL).
VASP is a substrate for cAMP- and cGMP- dependent protein kinases, which mediate cAMP- and cGMP-dependent inhibitory signaling in platelets, respectively. Increased cAMP levels followed by the activation of cAMP-dependent protein kinase A (PKA) phosphorylates VASP at position Ser157, whereas the elevation of cGMP leads to VASP phosphorylation at position Ser239 by cGMP-dependent protein kinase G (PKG) ([Aszódi et al., 1999]; [Li et al., 2003a]). To further examine whether naringenin modulates cAMP- or cGMP-mediated inhibitory signaling, the phosphorylation of VASP (Ser157 and Ser239) in washed platelets on stimulation with ADP were measured in the absence or presence of naringenin (100, 200, 400, and 800 μM). […] To further confirm the antiplatelet effects of naringenin through PKA-dependent signaling, the effects of naringenin on platelet aggregation were measured in the presence of PKG inhibitor (Rp-8-Br-PET-cGMPS) and PKA inhibitor (H89).
FIGURE 7 Naringenin promotes VASP phosphorylation. The effects of naringenin on phosphorylation of VASP (at positions Ser 157 and Ser239) were measured in washed platelets upon stimulation with ADP (10 μmol/L) by western blotting (A). The blots shown are representative of three separate experiments. The phosphorylation levels were quantified by ImageJ 1.47v software. The level of phosphorylation obtained with vehicle control (0 μM) was taken as 1 (B,C). R represents the phosphorylation level in resting platelets. Data are expressed as means ± SD (n = 3). *p < 0.05, ***p < 0.001 compared with the vehicle control group. VASP phosphorylation at Ser239 was also analyzed in washed platelets incubated with 5 μmol/L PKA (H89), 30 μmol/L PKG (Rp-8-Br-PET-cGMPS), or 5 μmol/L PKC (GF109203X) inhibitors before treatment with naringenin (D). Washed platelets were incubated with vehicle or naringenin (200 μmol/L) at 37°C in the presence or absence of 5 μmol/L PKA (H89) or 30 μmol/L PKG (Rp-8-Br-PET-cGMPS) inhibitors. After treatment, platelets were stimulated with ADP (10 μmol/L) to trigger aggregation (E). Data are expressed as means ± SD (n = 6). ***p < 0.001 compared with the ADP-treated group, ^# p < 0.05, ^### p < 0.001 compared with naringenin alone or H89 alone.
On the technique in general: A western blot detects proteins with antibodies after separation by electrophoresis.

In the case of `O=C1C[C@@H](c2ccc(O)cc2)Oc2cc(O)cc(O)c21` [Naringenin], the IC50 is roughly 236 µM in experiment [1] and 236 ± 33.1 µM in experiment [1] (Rattus norvegicus, Platelet). Further, the “Aggregation (%)” value in experiment [1] (100 μM) was 32.0% and 39.6% and 43.9% and 35.0% and 27.0% and 45.0%; in experiment [1] (200 μM), 24.1% and 37.0% and 14.9% and 25.4% and 24.3% and 10.0%; in experiment [1] (400 μM), 10.0% and 14.0% and 11.7% and 7.9% and 15.4% and 4.9%; in experiment [1] (800 μM), 7.3% and 9.1% and 9.0% and 4.9% and 4.2% and 14.0%. Further, the “Aggregation % of control” value in experiment [1] (100 μM) is 75.4 % of control and 93.4 % of control and 103.5 % of control and 82.5 % of control and 63.6 % of control and 106.1 % of control; in experiment [1] (200 μM), 56.8 % of control and 87.2 % of control and 35.1 % of control and 59.9 % of control and 57.3 % of control and 23.6 % of control; in experiment [1] (400 μM), 23.6 % of control and 33.0 % of control and 27.6 % of control and 18.6 % of control and 36.3 % of control and 11.6 % of control; in experiment [1] (800 μM), 17.2 % of control and 21.5 % of control and 21.2 % of control and 11.6 % of control and 9.9 % of control and 33.0 % of control. The “phosphorylation of VASP at Ser239” value in experiment [2] (ADP-stimulated washed platelets, 100, 200, 400, and 800 μM) was “induced the phosphorylation of VASP at Ser239”. The “p-VASP(Ser239) / GAPDH (Fold to ADP only)” value in experiment [2] (naringenin 100 μM) was 5.3418 and 4.6396 and 5.0239; in experiment [2] (naringenin 200 μM) it was 4.4032 and 4.7219 and 3.7689; in experiment [2] (naringenin 400 μM) it was 4.5890 and 4.9045 and 3.3393; in experiment [2] (naringenin 800 μM), 5.3132 and 6.0564 and 4.7205. The “p-VASP(Ser239) / GAPDH (raw data)” value was 0.6957 and 0.6043 and 0.6543 in experiment [2] (naringenin 100 μM); 0.5735 and 0.6150 and 0.4909 in experiment [2] (naringenin 200 μM); 0.5977 and 0.6388 and 0.4349 in experiment [2] (naringenin 400 μM); 0.6920 and 0.7888 and 0.6148 in experiment [2] (naringenin 800 μM).
